In US20100035871A1, “BENZOXAZINE DERIVATIVES AND USES THEREOF” (priority 2006, published 2010) one finds melting point data, which are given here for 35 compounds.

Counter-ions that a name gives are not always drawn.

One may read the melting point as the temperature of the solid-liquid transition. `NC[C@H]1CNc2cccc(-c3ccccc3Cl)c2O1` (as salt: hydrochloride) [Example 39, 1-[(2S)-8-(2-chlorophenyl)-3,4-dihydro-2H-1,4-benzoxazin-2-yl]methanamine]: the melting point is 145 °C (dec.).
As to `NC[C@@H]1CNc2cccc(-c3ccccc3Cl)c2O1` (as salt: hydrochloride) [Example 40, 1-[(2R)-8-(2-chlorophenyl)-3,4-dihydro-2H-1,4-benzoxazin-2-yl]methanamine], the melting point is 135 °C (dec.).
For the compound `NC[C@@H]1CNc2cccc(-c3ccccc3C(F)(F)F)c2O1` (as salt: hydrochloride) [Example 41, 1-{(2R)-8-[2-(trifluoromethyl)phenyl]-3,4-dihydro-2H-1,4-benzoxazin-2-yl}methanamine], the melting point is 180 °C (dec.).
For `Cc1cc(Cl)ccc1-c1cccc2c1O[C@H](CN)CN2` (as salt: hydrochloride) [Example 42, 1-[(2R)-8-(4-chloro-2-methylphenyl)-3,4-dihydro-2H-1,4-benzoxazin-2-yl]methanamine], the melting point was 195 °C (dec.).
To `NC[C@@H]1CNc2cccc(-c3ccccc3F)c2O1` (as salt: hydrochloride) [Example 43, 1-[(2R)-8-(2-fluorophenyl)-3,4-dihydro-2H-1,4-benzoxazin-2-yl]methanamine] belongs 186 °C (dec.).
For the compound `COc1ccc(-c2cccc3c2O[C@H](CN)CN3)c(C)c1` (as salt: hydrochloride) [Example 44, 1-[(2R)-8-(4-methoxy-2-methylphenyl)-3,4-dihydro-2H-1,4-benzoxazin-2-yl]methanamine], the melting point is 221 °C (dec.).
As to `COc1ccc(-c2cccc3c2O[C@H](CN)CN3)cc1` (as salt: hydrochloride) [Example 45, 1-[(2R)-8-(4-methoxyphenyl)-3,4-dihydro-2H-1,4-benzoxazin-2-yl]methanamine], the melting point was 196 °C (dec.).
In the case of `COc1ccc(-c2cccc3c2O[C@H](CN)CN3)c(Cl)c1` (as salt: hydrochloride) [Example 46, 1-[(2R)-8-(2-chloro-4-methoxyphenyl)-3,4-dihydro-2H-1,4-benzoxazin-2-yl]methanamine], the melting point was 211 °C (dec.).
Turning to `NC[C@H]1CNc2cccc(-c3ccccc3C(F)(F)F)c2O1` (as salt: hydrochloride) [Example 47, 1-{(2S)-8-[2-(trifluoromethyl)phenyl]-3,4-dihydro-2H-1,4-benzoxazin-2-yl}methanamine], the melting point was 179 °C (dec.).
Consider `Cc1cc(Cl)ccc1-c1cccc2c1O[C@@H](CN)CN2` (as salt: hydrochloride) [Example 48, 1-[(2S)-8-(4-chloro-2-methylphenyl)-3,4-dihydro-2H-1,4-benzoxazin-2-yl]methanamine], for which the melting point is 196 °C (dec.).
With `NC[C@H]1CNc2cccc(-c3ccccc3F)c2O1` (as salt: hydrochloride) [Example 49, 1-[(2S)-8-(2-fluorophenyl)-3,4-dihydro-2H-1,4-benzoxazin-2-yl]methanamine] the figure was 190 °C (dec.).
To `COc1ccc(-c2cccc3c2O[C@@H](CN)CN3)c(C)c1` (as salt: hydrochloride) [Example 50, 1-[(2S)-8-(4-methoxy-2-methylphenyl)-3,4-dihydro-2H-1,4-benzoxazin-2-yl]methanamine] belongs 222 °C (dec.); to `COc1ccc(-c2cccc3c2O[C@@H](CN)CN3)cc1` (as salt: hydrochloride) [Example 51, 1-[(2S)-8-(4-methoxyphenyl)-3,4-dihydro-2H-1,4-benzoxazin-2-yl]methanamine], 198 °C (dec.).
For the compound `COc1ccc(-c2cccc3c2O[C@@H](CN)CN3)c(Cl)c1` (as salt: hydrochloride) [Example 52, 1-[(2S)-8-(2-chloro-4-methoxyphenyl)-3,4-dihydro-2H-1,4-benzoxazin-2-yl]methanamine], the melting point was 215 °C (dec.).
With `NC[C@@H]1CNc2cccc(-c3cc(Cl)ccc3Cl)c2O1` (as salt: hydrochloride) [Example 53, 1-[(2R)-8-(2,5-dichlorophenyl)-3,4-dihydro-2H-1,4-benzoxazin-2-yl]methanamine] the figure was 130 °C (dec.); with `NC[C@@H]1CNc2cccc(-c3ccc(Cl)cc3Cl)c2O1` (as salt: hydrochloride) [Example 54, 1-[(2R)-8-(2,4-dichlorophenyl)-3,4-dihydro-2H-1,4-benzoxazin-2-yl]methanamine], 163 °C (dec.); with `NC[C@@H]1CNc2cccc(-c3ccc(Cl)cc3C(F)(F)F)c2O1` (as salt: hydrochloride) [Example 67, 1-{(2R)-8-[4-chloro-2-(trifluoromethyl)phenyl]-3,4-dihydro-2H-1,4-benzoxazin-2-yl}methanamine], 203 °C (dec.).
As for `COc1ccccc1-c1cccc2c1OC(CN)CN2C` (racemic) (as salt: hydrochloride) [Example 1, 1-[8-(2-Methoxyphenyl)-4-methyl-3,4-dihydro-2H-1,4-benzoxazin-2-yl]methanamine], the melting point is 90 °C (dec.).
With `Cc1cc(Cl)ccc1-c1cccc2c1OC(CN)CN2C` (racemic) (as salt: hydrochloride) [Example 2, 1-[8-(4-Chloro-2-methylphenyl)-4-methyl-3,4-dihydro-2H-1,4-benzoxazin-2-yl]methanamine] the figure was 109 to 112 °C.
For `CN1CC(CN)Oc2c(-c3ccc(Cl)cc3Cl)cccc21` (racemic) (as salt: hydrochloride) [Example 3, 1-[8-(2,4-Dichlorophenyl)-4-methyl-3,4-dihydro-2H-1,4-benzoxazin-2-yl]methanamine], the melting point is 90 °C (dec.).
For the compound `CN1CC(CN)Oc2c(-c3ccccc3C(F)(F)F)cccc21` (racemic) (as salt: hydrochloride) [Example 4, 1-{4-Methyl-8-[2-(trifluoromethyl)phenyl]-3,4-dihydro-2H-1,4-benzoxazin-2-yl}methanamine], the melting point was 90 °C (dec.).
With `COc1ccc(-c2cccc3c2OC(CN)CN3C)c(C)c1` (racemic) (as salt: hydrochloride) [Example 5, 1-[8-(4-Methoxy-2-methylphenyl)-4-methyl-3,4-dihydro-2H-1,4-benzoxazin-2-yl]methanamine] the figure was 85 °C (dec.).
Compound `COc1ccc(-c2cccc3c2OC(CN)CN3C)cc1` (racemic) (as salt: hydrochloride) [Example 6, 1-[8-(4-Methoxyphenyl)-4-methyl-3,4-dihydro-2H-1,4-benzoxazin-2-yl]methanamine] registered a melting point of 90 to 92 °C.
As for `CN1CC(CN)Oc2c(-c3ccccc3F)cccc21` (racemic) (as salt: hydrochloride) [Example 7, 1-[8-(2-Fluorophenyl)-4-methyl-3,4-dihydro-2H-1,4-benzoxazin-2-yl]methanamine], the melting point is 104 °C (dec.).
To `Cc1ccccc1-c1cccc2c1OC(CN)CN2C` (racemic) (as salt: hydrochloride) [Example 8, 1-[4-Methyl-8-(2-methylphenyl)-3,4-dihydro-2H-1,4-benzoxazin-2-yl]methanamine] belongs 92 °C (dec.); to `CN1CC(CN)Oc2c(-c3ccccc3)cccc21` (racemic) (as salt: hydrochloride) [Example 9, 1-(4-Methyl-8-phenyl-3,4-dihydro-2H-1,4-benzoxazin-2-yl)methanamine], 80 °C (dec.).
`NCC1CNc2cc(F)cc(-c3c(Cl)cccc3Cl)c2O1` (racemic) (as salt: hydrochloride) [Example 10, 1-[8-(2,6-Dichlorophenyl)-6-fluoro-3,4-dihydro-2H-1,4-benzoxazin-2-yl]methanamine]: the melting point fell in the range of 135 to 136 °C.
Consider `CN1CC(CN)Oc2c(-c3ccccc3Cl)cccc21` (racemic) (as salt: hydrochloride) [Example 11, 1-[8-(2-Chlorophenyl)-4-methyl-3,4-dihydro-2H-1,4-benzoxazin-2-yl]methanamine], for which the melting point is 80 °C (dec.).
In the case of `NCC1CN(CC2CC2)c2cccc(-c3ccccc3Cl)c2O1` (racemic) (as salt: hydrochloride) [Example 12, 1-[8-(2-Chlorophenyl)-4-(cyclopropylmethyl)-3,4-dihydro-2H-1,4-benzoxazin-2-yl]methanamine], the melting point was 90 °C (dec.).
Take `CN1CC(CN)Oc2c(-c3cc(Cl)ccc3Cl)cccc21` (racemic) (as salt: hydrochloride) [Example 13, 1-[8-(2,5-Dichlorophenyl)-4-methyl-3,4-dihydro-2H-1,4-benzoxazin-2-yl]methanamine]: the melting point is 90 °C (dec.).
With `NCC1CNc2cccc(-c3cc(Cl)ccc3Cl)c2O1` (racemic) (as salt: hydrochloride) [Example 14, 1-[8-(2,5-Dichlorophenyl)-3,4-dihydro-2H-1,4-benzoxazin-2-yl]methanamine], the melting point was 130 °C (dec.).
Compound `NCC1CNc2cccc(-c3ccc(Cl)cc3Cl)c2O1` (racemic) (as salt: hydrochloride) [Example 15, 1-[8-(2,4-Dichlorophenyl)-3,4-dihydro-2H-1,4-benzoxazin-2-yl]methanamine] gave a melting point of 158 to 161 °C.
As for `NCC1CNc2cccc(-c3ccccc3Cl)c2O1` (racemic) (as salt: hydrochloride) [Example 16, 1-[8-(2-Chlorophenyl)-3,4-dihydro-2H-1,4-benzoxazin-2-yl]methanamine], the melting point is 140 °C (dec.).
With `Cc1ccccc1-c1cccc2c1OC(CN)CN2` (racemic) (as salt: hydrochloride) [Example 17, 1-[8-(2-Methylphenyl)-3,4-dihydro-2H-1,4-benzoxazin-2-yl]methanamine], the melting point fell in the range of 195 to 197 °C.
`NCC1CNc2cccc(-c3ccc(Cl)cc3C(F)(F)F)c2O1` (racemic) (as salt: hydrochloride) [Example 18, 1-{8-[4-Chloro-2-(trifluoromethyl)phenyl]-3,4-dihydro-2H-1,4-benzoxazin-2-yl}methanamine] gave a melting point of 205 to 207 °C.
